# Results: PubChem BioAssay (NCI)
#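 48-hour exposure; five concentrations; linearly interpolated endpoints. TGI is the concentration that stops growth completely.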
# How the values were obtained:
# Test in all cases: growth of human tumour cells (NCI), 48 h
# 786-0 renal = test system: 786-0 renal
# A498 renal = test system: A498 renal
# A549 NSCLC = test system: A549 NSCLC
# ACHN renal = test system: ACHN renal
# BT-549 breast = test system: BT-549 breast
# CAKI-1 renal = test system: CAKI-1 renal
# CCRF-CEM leukemia = test system: CCRF-CEM leukemia
# COLO 205 colon = test system: COLO 205 colon
# DLD-1 colon = test system: DLD-1 colon
# DMS 114 small cell lung = test system: DMS 114 small cell lung
# DMS 273 small cell lung = test system: DMS 273 small cell lung
# DU-145 prostate = test system: DU-145 prostate
# EKVX NSCLC = test system: EKVX NSCLC
# HCC-2998 colon = test system: HCC-2998 colon
# HCT-116 colon = test system: HCT-116 colon
# HCT-15 colon = test system: HCT-15 colon
# HL-60(TB) leukemia = test system: HL-60(TB) leukemia
# HOP-18 NSCLC = test system: HOP-18 NSCLC
# HOP-62 NSCLC = test system: HOP-62 NSCLC
# HOP-92 NSCLC = test system: HOP-92 NSCLC
# HS 578T breast = test system: HS 578T breast
# HT29 colon = test system: HT29 colon
# IGROV1 ovarian = test system: IGROV1 ovarian
# K-562 leukemia = test system: K-562 leukemia
# KM12 colon = test system: KM12 colon
# KM20L2 colon = test system: KM20L2 colon
# LOX IMVI melanoma = test system: LOX IMVI melanoma
# LXFL 529 NSCLC = test system: LXFL 529 NSCLC
# M14 melanoma = test system: M14 melanoma
# M19-MEL melanoma = test system: M19-MEL melanoma
# MALME-3M melanoma = test system: MALME-3M melanoma
# MCF7 breast = test system: MCF7 breast
# MDA-MB-231 breast = test system: MDA-MB-231 breast
# MDA-MB-435 = test system: MDA-MB-435
# MDA-N = test system: MDA-N
# MOLT-4 leukemia = test system: MOLT-4 leukemia
# NCI-H226 lung = test system: NCI-H226 lung
# NCI-H23 lung = test system: NCI-H23 lung
# NCI-H460 lung = test system: NCI-H460 lung
# NCI-H522 lung = test system: NCI-H522 lung
# OVCAR-3 ovarian = test system: OVCAR-3 ovarian
# OVCAR-4 ovarian = test system: OVCAR-4 ovarian
# OVCAR-5 ovarian = test system: OVCAR-5 ovarian
# OVCAR-8 ovarian = test system: OVCAR-8 ovarian
# PC-3 prostate = test system: PC-3 prostate
# RPMI-8226 leukemia = test system: RPMI-8226 leukemia
# RXF 393 renal = test system: RXF 393 renal
# RXF-631 renal = test system: RXF-631 renal
# SF-268 CNS = test system: SF-268 CNS
# SF-295 CNS = test system: SF-295 CNS
# SF-539 CNS = test system: SF-539 CNS
# SK-MEL-2 melanoma = test system: SK-MEL-2 melanoma
# SK-MEL-28 melanoma = test system: SK-MEL-28 melanoma
# SK-MEL-5 melanoma = test system: SK-MEL-5 melanoma
# SK-OV-3 ovarian = test system: SK-OV-3 ovarian
# SN12C renal = test system: SN12C renal
# SNB-19 CNS = test system: SNB-19 CNS
# SNB-75 CNS = test system: SNB-75 CNS
# SNB-78 CNS = test system: SNB-78 CNS
# SR leukemia = test system: SR leukemia
# SW-620 colon = test system: SW-620 colon
# T-47D breast = test system: T-47D breast
# TK-10 renal = test system: TK-10 renal
# U251 CNS = test system: U251 CNS
# UACC-257 melanoma = test system: UACC-257 melanoma
# UACC-62 melanoma = test system: UACC-62 melanoma
# UO-31 renal = test system: UO-31 renal
# XF 498 CNS = test system: XF 498 CNS
smiles,measurement,setting,value
CN(C)CCC(=O)N1C/C(=C/c2ccccc2)C(=O)/C(=C\c2ccccc2)C1,TGI,786-0 renal,3.62 µM
same,TGI,A498 renal,6.75 µM
same,TGI,A549 NSCLC,13.5 µM
same,TGI,ACHN renal,5.5 µM
same,TGI,BT-549 breast,2810 nM
same,TGI,CAKI-1 renal,7.02 µM
same,TGI,CCRF-CEM leukemia,874 nM
same,TGI,COLO 205 colon,5.77 µM
same,TGI,DLD-1 colon,3.25 µM
same,TGI,DMS 114 small cell lung,4.1 µM
same,TGI,DMS 273 small cell lung,3.26 µM
same,TGI,DU-145 prostate,18.5 µM
same,TGI,EKVX NSCLC,12.6 µM
same,TGI,HCC-2998 colon,2450 nM
same,TGI,HCT-116 colon,1150 nM
same,TGI,HCT-15 colon,3.91 µM
same,TGI,HL-60(TB) leukemia,1810 nM
same,TGI,HOP-18 NSCLC,10.9 µM
same,TGI,HOP-62 NSCLC,16 µM
same,TGI,HOP-92 NSCLC,16.6 µM
same,TGI,HS 578T breast,20.3 µM
same,TGI,HT29 colon,2690 nM
same,TGI,IGROV1 ovarian,7.02 µM
same,TGI,K-562 leukemia,973 nM
same,TGI,KM12 colon,1730 nM
same,TGI,KM20L2 colon,2890 nM
same,TGI,LOX IMVI melanoma,1270 nM
same,TGI,LXFL 529 NSCLC,5.51 µM
same,TGI,M14 melanoma,6.53 µM
same,TGI,M19-MEL melanoma,2830 nM
same,TGI,MALME-3M melanoma,5.9 µM
same,TGI,MCF7 breast,2190 nM
same,TGI,MDA-MB-231 breast,2600 nM
same,TGI,MDA-MB-435,3.85 µM
same,TGI,MDA-N,3.71 µM
same,TGI,MOLT-4 leukemia,1460 nM
same,TGI,NCI-H226 lung,12.6 µM
same,TGI,NCI-H23 lung,6.76 µM
same,TGI,NCI-H460 lung,6.47 µM
same,TGI,NCI-H522 lung,977 nM
same,TGI,OVCAR-3 ovarian,7.05 µM
same,TGI,OVCAR-4 ovarian,7.98 µM
same,TGI,OVCAR-5 ovarian,6.66 µM
same,TGI,OVCAR-8 ovarian,7.58 µM
same,TGI,PC-3 prostate,4.2 µM
same,TGI,RPMI-8226 leukemia,717 nM
same,TGI,RXF 393 renal,4.94 µM
same,TGI,RXF-631 renal,10.6 µM
same,TGI,SF-268 CNS,9.22 µM
same,TGI,SF-295 CNS,8.55 µM
same,TGI,SF-539 CNS,11.9 µM
same,TGI,SK-MEL-2 melanoma,8.74 µM
same,TGI,SK-MEL-28 melanoma,5.18 µM
same,TGI,SK-MEL-5 melanoma,3.9 µM
same,TGI,SK-OV-3 ovarian,15.2 µM
same,TGI,SN12C renal,3.84 µM
same,TGI,SNB-19 CNS,7.62 µM
same,TGI,SNB-75 CNS,15.1 µM
same,TGI,SNB-78 CNS,16.1 µM
same,TGI,SR leukemia,8.63 µM
same,TGI,SW-620 colon,1220 nM
same,TGI,T-47D breast,17.7 µM
same,TGI,TK-10 renal,17.9 µM
same,TGI,U251 CNS,2000 nM
same,TGI,UACC-257 melanoma,4.61 µM
same,TGI,UACC-62 melanoma,3.77 µM
same,TGI,UO-31 renal,5.21 µM
same,TGI,XF 498 CNS,6.69 µM
